Where “and” joins values, the source holds several entries; their conditions need not be identical. Equal values may be shown once.
Key:
[1] = cited from earlier work; for D: diffusion coefficient
[2] = Diffusion of 1 mM Rhodamine B across RWM in static Franz diffusion cells, with and without 12.5 μm microperforation; assay type: in vitro ADME, guinea pig; conditions: for time to reach 10 μM: expected
Experimental: The diffusion across guinea pig RWM, with and without microperforation, was developed and tested: cochleae, sparing the RWM, were embedded in 3D-printed acrylic holders using hybrid dental composite and light cured to adapt the round window niche to 3 ml Franz diffusion cells. Perforations were created with 12.5 μm diameter needles and examined with light microscopy. Diffusion of 1 mM Rhodamine B across RWM in static diffusion cells was measured via fluorescence microscopy.
In order to carry out this analysis, diffusion of RhoB through the RWM was performed on 12 Hartley Strain Guinea Pigs in a modified diffusion cell at room temperature. Franz™ Cell-type diffusion cells (PermeGear, Inc., Hellertown, Pa.) are made of borosilicate glass and have a 5 mm orifice and a 3 ml receptor volume with flat ground joints (FIG. 30). The cell consists of three parts (FIG. 33): donor chamber, membrane, and receptor chamber.
The donor chamber was filled with 0.3 ml of 1 mM RhoB in PBS meeting the conditions for continuous infinite dosing. Donor chamber was covered with Parafilm® for the duration of the experiment. Drug application surface was determined by size of RWM.
Guinea pig RWM was embedded in an acrylic holder with dental composites (FIG. 34). The acrylic holder was designed and 3D printed (Objet 24, Stratasys, MN) to allow for adaptation of the round window niche containing RWM to the diffusion cell. Dental composites (Dentsply, Milford, Del.) included primer (Prime & Bond® NT™) and a urethane modified Bis-GMA resin (TPH Spectra™) which were light cured at 20 s intervals with a 470 nm light emitting diode greater than 500 mW/cm^2. The diffusion cell was assembled with two custom expanded Polytetraflurane (PTFE) gaskets, 1.5 mm thick, to prevent leakage from the donor or receptor chambers at the diffusion cell/membrane interface. The acrylic holder was tested for reactivity with RhoB and was inert for >48 hours. The RWM was equilibrated in PBS solution for 30 minutes prior to application of RhoB. Membranes were embedded and equilibrated within 2 hours of euthanasia.
Microperforations were introduced in the RWM with manual application of a minutien insect pin (Size 000, 12.5 μm diameter tip, 250 μm diameter shaft) under a binocular microscope. All membranes were imaged before and after diffusion study using bright field, phase contrast or fluorescent microscopy and Z-stacking. Imaging was used to confirm the presence or absence of membrane perforation. 60 images at […] intervals were taken and compiled to create one image. ImageJ (Rasband, W. S., Image J, U.S. National Institutes of Health, Bethesda, Md.) was used to calculate the size of the membrane and, if present, perforation.
The receptor chamber was filled with 3 ml of PBS and continuously stirred at 650 rpm with a cylindrical Teflon® magnetic stirbar to allow rapid mixing of contents without development of a vortex. Sampling port allowed for extraction of fluid samples at various time points to monitor progression of diffusion. The set up and sampling conditions were validated for consistency in the following categories: 1) diffusion cell dimensions, 2) stir bar speed, and 3) sampling frequency, to increase the precision of results across experiments^23.
Sampling of the receiver chamber was made at 12 predetermined times over 24 hours and analyzed with fluorescent microscopy. At each time point 90 μL was removed using a stretched syringe from the center of the receptor chamber and the volume was replaced with 90 μL of fresh PBS. These diffusion experiments are considered static as solution from the receptor chamber is renewed by removal of a set quantity (90 μL) at sampling times and replacement of this volume with fresh medium. The removed 90 μL was then diluted with 360 μL PBS to reduce the effects of evaporation and maintain concentrations within the acceptable detection range of the microscope. The samples were placed on a tilt table to enhance mixing after dilution. […]

[3] = Diffusion of 500 μM rhodamine B across RWM in Franz Cell, with and without manual perforation (10 μm / 100 μm needle); assay type: in vitro ADME, guinea pig
Experimental: In another embodiment, a model for measuring diffusion across a guinea pig RWM, was developed and tested. The model is applicable for analysis of the RWM both with and without microperforations. Semicircular canals were removed from the pigs and RWM exposed prior to perforation. In the exemplary embodiment, the cochlea, sparing the RWM, was embedded in a 3D-printed acrylic holder using hybrid dental composite and light cured to adapt the round window niche to a 3 ml Franz™ Cell. The Franz™ Cell is a widely recognized standardized method for studying transdermal drug delivery. Microperforations were created with a 10 μm diameter needle (as shown in FIG. 32) and examined with fluorescent light microscopy (FSX-100, as shown in FIG. 31) as a function of time exposure.
In the exemplary embodiment show in FIGS. 33-34, a Franz Cell was customized in accordance with the present disclosure to include an adapter to allow analysis of a very small membrane in the Franz Cell. The adaptor depicted in FIGS. 33B and 34 was manufactured with a 3-dimensional printer, though alternative manufacturing techniques (and suitable materials) are contemplated to be within the scope of the disclosure. The adaptor includes a downwardly extending protrusion or lip (see reference numerals “A” and “B” in FIG. 33) which are configured to engage the Receptor portion of the Franz Cell.
Similarly, FIGS. 37A-C illustrate various Z-stacked perforation images which were compiled from 60 images taken at 5 μm intervals of RWM with perforation: A) bright field microscopy; B) bright field microscopy post diffusion with RhoB; C) Fluorescent microscopy
Manual perforations made with 10 μm needle tip produce an elliptical hole (see arrow in FIG. 38) with axes 30 μm (26-34)×47 μm (44-50). In one example, a manual perforation with 100 μm needle tip created an elliptical tear in the membrane Measuring […]×460 μm, as shown in FIG. 38 (in which the dot “D” indicates tip size).

[4] = Permeability of one pore estimated from diffusion coefficient and membrane thickness (P=D/h); 1% area perforation improvement; conditions: for Ppore: D/h, membrane thickness 10 μm, guinea pig
Text: From Fick's first law, diffusion is described by J=−D∇ϕ (1) where J is diffusion flux in mol/m^2*s, D is the diffusion coefficient in m^2/s, and ϕ is the concentration in mol/l. Then from a one-dimensional simplification of the pore
[formula] This can be further simplified with the gradient is uniform across the pore to obtain
[formula] where x is the axis through the pore in m, cx is the concentration at both ends in mol/l, and h is the RWM thickness in m. Then from the definition of flux
[formula] the permeability of the membrane is Flux=−PA(c1−c0) (5) where P=D/h is the permeability in m/s.
Thus the permeability of one pore can be estimated from the diffusion coefficient and the thickness of the membrane (10 μm, guinea pig).

[5] = intact RWM, cited from earlier work

In the case of `CCN(CC)c1ccc2c(-c3ccccc3C(=O)O)c3ccc(=[N+](CC)CC)cc-3oc2c1.[Cl-]` [Rhodamine B], the “Diffusion Coefficient in water at 25° C. (298 K)” value [1] is given as 4.5 ± 0.4 10^−6 cm^2s^−1 and 4.27 ± 0.04 10^−6 cm^2s^−1, the “Permeability KP RWM” value [2] is given as 0.51 ± 0.41 10^−8 ms^−1 and the “permeability across the perforation itself” value [2] is given as 8.3±2.2×10^−5 m/s. The “permeability across the perforation relative to intact membrane” value [2] was 16,000 times, the “permeability coefficient of the RWM with microperforations” value [2] was 18.1±6.1×10^−8 m/s and the “time to reach 10 μM” value ([2]; 3×3 array of perforations) was 30 min. For the same compound, the “time to diffuse 10 μM across the RWM” value ([2]; intact membrane) was 7 days, the “increase in permeability / enhancement in diffusion with microperforation vs intact RWM” value ([2]; single 12.5 μm tip microperforation, 0.22% of membrane) was 35 times and the “time to diffuse 10 μM across the RWM” value ([2]; single microperforation of approximately 2.5×10^−3 mm^2) was “under 5 hours”. For the same compound, the “time to reach 10 μM” value ([2]; three perforations) was 90 min, the enhancement in diffusion ([3]; 10 μm needle, 30 × 47 μm perforation) was 160 × and the enhancement in diffusion ([3]; 100 μm needle, 240 × 460 μm elliptical perforation) was 3500 ×. The “Microperforated KP” value ([3]; guinea pig) was 3.21×10^−6 m/s, the “time required to reach 250 μM” value ([3]; membranes with a small microperforation) was 8.5 days and the “time required to reach 250 μM” value ([3]; unperforated membrane, 250 μM = ½ applied concentration) was 3.7 years. For the same compound, the “predicted value of pore permeability based on the diffusion coefficient” value ([4]; not told) was 4×10^−5 m/s.
In the case of Gentamicin, the D [1] is listed as 6.82 × 10^−10 m2/s, the “Diffusion Coefficient in water at 25° C. (298 K)” value [1] is listed as 6.82 10^−6 cm^2s^−1 and the Ppore [4] is listed as 6.82 × 10^−5 m/s. For the same compound, the PRWM [5] was 3.5 ± 4.6 × 10^−8 m/s.
In the case of `C[N+](C)(C)c1ccccc1` [TMPA], the D [1] is given as 1.01 × 10^−9 m2/s, the Ppore [4] is given as 1.01 × 10^−4 m/s and the “permeability of the RWM” value ([5]; guinea pig model) is given as 1.9×10^−8 m/s. The PRWM [5] was 1.9 × 10^−8 m/s.
For `C[C@@H]1C[C@H]2[C@@H]3CCC4=CC(=O)C=C[C@]4(C)[C@@]3(F)[C@@H](O)C[C@]2(C)[C@@]1(O)C(=O)CO` [Dexamethasone], the PRWM [5] is given as 5.0~35.0 × 10^−8 m/s.
